In data set [1] the test system is Derlin-1 mRNA. In words: Derlin-1 mRNA knockdown by siRNA in monocyte-derived dendritic cells (qPCR, ΔΔCt). The data set is classed as cell-based, human. The settings on record: MODC. The procedure: (§1) Table 1: Summary of Derlin-1 Knockdowns with Various siRNAs. Cells transfected in 12 well plate at 60%-80% confluency. one ul Viromer blue was used per 1 ml final volume. Cells were lysed via centrifugation and resuspended in TRI reagent at time points of either 6 h, 24 h, and 48 h. Lysates were split for both protein verification and qPCR. Knockdowns are estimated using the ΔΔCt method. […] Anti-Derlin-1 siRNA was designed using MITs website (sirna.wi.mit.edu) and siRNA design software (dharmacon.horizondiscovery.com/rnai/sirna). SiRNA were chosen based on the criteria that they would bind no more than 15 nucleotides on off-target mRNA and that they would be capable of knockdown for all four of the Derlin-1 mRNA isoforms. Additionally, siRNAs with 40-60% GC content, no more than 3 identical nucleotides in a row, and 3′ UU overhangs were used. The first siRNA (SEQ ID NO: 65, 5′-[…]-3′) was purchased from TriLink Biotechnologies and the second (SEQ ID NO: 66, 5′-[…]-3′) was purchased from Horizon Discovery. A third, modified siRNA with sequence 5′-SEQ ID NO: 67, O′me/G/O′me/[…]-3′ and DNA bases on the 1st and 8th nucleotide of the antisense strand was also designed and purchased from Horizontal Discovery. Scramble siRNAs were purchased from Horizontal Discovery (D-001810-10-05, ON-TARGET plus Non-targeting Pool).
Derlin-1 forms an integral part of the […] machinery required for transporting classical MHCI, e.g., HLA-A, -B, -C for proteasome degradation. […] In contrast, the protein band of Derlin-1 is entirely missing in Derlin-1 siRNA-treated MoDCs. Transfection of the primary cells were performed using PEI reagents (Viromer Blue vs. Viromer Red). The embodiment of the invention is three-fold. One aspect of the embodiment resides in treating APC with Derlin-1 RNA interference to prevent the generation of endogenous leader peptide as well as to cause dissociation of the HLA-E bound endogenous leader peptides so that Derlin-1-treated APC can be fully loaded with the HLA-E vaccines in the presence of the second costimulatory signal for immune induction.

The subject of data set [2] is Derlin-1 mRNA. In words: Derlin-1 mRNA knockdown by siRNA in T2 cells (qPCR, ΔΔCt). Format: cell-based, human. As for the experimental part: as §1, with “Pool). […]” for “Pool).”
Data set [3] relates to HLA-E. Description: Surface HLA-E expression in immature MoDC cells (FACS). The data set is classed as cell-based, human. The settings on record: 100 nM SR11237, 100 nM Bexarotene or Interferon-β 1,000 U, 4 days. As for the experimental part: FIG. 5. […] MoDCs were then collected and stained with fluorescence-conjugated antibody; APC-conjugated anti-CD83 (Biolegend) and PE-conjugated HLA-E (Biolegend) followed by fixation with 2% paraformaldehyde. Phenotype and HLA-E expression of MoDCs were performed by using a FACS, LRSII flow cytometry and the data were processed by using the Flowjo software.

For the next data set, the system named is HLA-G. In words: Surface HLA-G expression in PBMCs (FACS). The data set is classed as cell-based, human. Conditions: anti-CD3 coated plate, 4 days. As for the experimental part:
(§2) FIG. 6. Modulation of surface HLA-G and HLA-E expression in PBMCs in present of interferon-β. Fresh buffy coat was obtained from San Diego blood blank. PBMCs (peripheral blood mononuclear cells) were isolated by density gradient centrifugation with Histopague-1077 (Sigma). 5×10^5 of PBMCs were seeded in anti-CD3 (10 μg/ml) coated 96 wells-plate and treated with interferon-I3 for 4 days. Cells were collected and stained with fluorescence-conjugated antibody; Alexa Fluor 488-conjugated anti-human CD8a (Biolegend), Pacific Blue-conjugated human CD4, APC-Cy7-conjugated human CD19 and PE conjugated-HLA-E or PE-Cy 7 conjugated HLA-G (Panel A) or HLA-E (Panel B), followed by fixation with 2% paraformaldehyde. Phenotype and HLA-E or HLA-G (Biolegend) expression were performed by using a FACS, LRSII flow cytometry and the data were processed as describe above.

Data set [4] has as its system HLA-E. Description: Surface HLA-E expression in PBMCs (FACS). The data set is classed as cell-based, human. Conditions: anti-CD3 coated plate, 4 days. The procedure: as §2
Data set [5] deals with HLA-E. Description: ELISA of renatured HLA-E binding to biotinylated leader peptide (C3N). Set-up: species or system human. As for the experimental part: FIG. 2. […] ELISA for the interaction of denatured HLA-E or covalent HLA-E-β2 microglobulin fusion protein with biotinylated HLA-A2 leader peptide. 10 μg of denatured recombinant HLAE-β2 microglobulin fusion protein, or denatured HLA-E incubated with biotinylated A2 leader peptide (SEQ ID NO: 50, […]) with or without 10 μg β2 microglobulin in 50 μl buffer A (0.5 mM-Tris pH at 6.6) at 18° C. for two days. The complexes were then added into anti-HLA E antibody coated plate (2 μg/ml) and incubated for 1 hour. After washing three times with 1% BSA PBS, HRP-Avidin (Biolegend #405103, 1:1000) was used to detect bound biotinylated leader peptide.
A conformation capture of canonical/non-canonical peptide (C3N) method to HLA-E is designed to test predicted HLA-E binding peptides. HLA-E canonical and nominal peptides predicted from the python algorithm of Igepredict program and any 9 to 12-mer made collinearly with an overlapping IgE sequence can be tested by a binding assay. […] The assay for intact re-natured conformation of HLA-E is dependent on gaining the binding signal using anti-HLA-E coated plate to capture re-natured HLA-E in the presence of beta 2 microglobulin and leader peptides.

The subject of data set [6] is HLA-E. In words: Upregulation of surface HLA-E by peptide nonamers in TAP-deficient T2 cells (FACS). The settings on record: overnight incubation with peptide. The data set is classed as cell-based, human. As for the experimental part: FIG. 3. Upregulation of surface HLA-E by peptide nonamers. Screening 9-mers of IgE epitope that were able to induce surface HLA-E expression in tap deficient T2 cells. T2 cells were cultured overnight in present of Panel A: A2 leader peptide-SEQ ID NO: 51, […]) or IgE epitope, B5 (SEQ ID NO: 52, […]), B6 (SEQ ID NO: 53, […]), B8 (SEQ ID NO: 54, […]) and B9 (SEQ ID NO: 55, […]), SP4 (SEQ ID NO: 56, […]), SP7 (SEQ ID NO: 57, […]) and SP11 (SEQ ID NO: 58, […]), and Panel B: IgE epitope of Mixture1 (SEQ ID NO: 59, […], […], […], […] and […]), Mixture2 (SEQ ID NO: 60: […], […], […], […] and […]), and Mixture 3 (SEQ ID NO: 61, […], SGYTPGTIN, […], […] and TINITWLED) at the concentration of 100 μg/ml. Cells were then collected and stained with PE conjugated HLA E followed by FACS flow cytometry analysis.
FIG. 12. Screening of IgE epitope 9-mer which can induce surface HLA-E expression in TAP-deficient T2 cells. Peptide E33 ([…], SEQ ID NO: 68) was predicted by Ige Predict program. T2 cells (2.5×10^5 cells/well) were cultured in the presence of E33 peptide or HLA-A2 leader peptide (10 μg/mL) in 96-well cell culture plate for overnight. Cell were collected and stained with PE anti-human HLA-E antibody followed by flow cytometric analysis (Panel A). […]

Several values for one entry are separate records, joined by “and”; a condition that tells them apart may be missing. Equal values may be shown once. Ends that are not written are not given here.

Consider “5′-GAGGCCAGCAGACUAUUUAUU-3′ [Derlin siRNA #1]”, for which the “Derlin-1 mRNA knockdown (KD)” value is given as 36% with Derlin-1 mRNA [1] (25 nM siRNA, Day 1); 30% in the data set with Derlin-1 mRNA [1] (50 nM siRNA, Day 1); 32% in the data set on Derlin-1 mRNA [2] (T2, 5 nM siRNA, Day 1); 19% in the data set on Derlin-1 mRNA [2] (T2, 5 nM siRNA, Day 2); 50% in the data set on Derlin-1 mRNA [2] (T2, 10 nM siRNA, Day 1); 10% with Derlin-1 mRNA [2] (T2, 10 nM siRNA, Day 2). The “Derlin-1 mRNA knockdown (KD)” value in the data set on Derlin-1 mRNA [2] (T2, 20 nM siRNA, Day 1) turned out to be 25%; in the data set with Derlin-1 mRNA [2] (T2, 20 nM siRNA, Day 2) it was 29%.

On to Interferon β, for which the “HLA-E expression of immature MoDC cells” value in the data set with HLA-E [3] is “increasing intense expression”. Also, in the data set with HLA-G, the “expression of HLA-G in CD4+ T cells” value is recorded as “about two-fold”, the “expression of HLA-G in CD8+ T cells” value was “about two-fold” and the “expression of HLA-G in CD19+ cells” value is reported as “increased”. In addition, in the data set with HLA-E [4], the “HLA-E expression in CD4+ T cells” value was “decrease”, the “HLA-E expression in CD8+ T cells” value is reported as “decrease” and the “HLA-E expression in CD19+ cells” value is “increased”.

For “NPRKVTAYL (also: biotin, place not given here; listed as Homo sapiens) [HLA-E leader peptide]”, the “increment of HLA-E binding signal” value in the data set on HLA-E [5] (leader peptide 1.0 μg/ml versus 0.1 μg/ml) was ~10 fold and ~15 fold. The “HLA-E binding signal (ELISA)” value in the data set with HLA-E [5] (leader peptide addition at 0.1 μg/ml) is listed as “around 0.02 OD”.

For the substance “O′me/G/O′me/ACUUGGGAGGAAGAAAUUU-3′ (siRNA; 2'-O-methyl at sense 5' end, DNA at antisense positions 1 and 8, further chemistry not given here; listed as Homo sapiens) [Derlin siRNA #3]”, the “Derlin-1 mRNA knockdown (KD)” value in the data set on Derlin-1 mRNA [1] (5 nM siRNA, Day 1) is on record as 62%; in the data set on Derlin-1 mRNA [1] (5 nM siRNA, Day 2) it was 37%; in the data set on Derlin-1 mRNA [1] (10 nM siRNA, Day 1) it was 41%; with Derlin-1 mRNA [1] (10 nM siRNA, Day 2), 33%; in the data set with Derlin-1 mRNA [2] (T2, 1 nM siRNA, 6 Hours) it was 59%; in the data set with Derlin-1 mRNA [2] (T2, 2 nM siRNA, 6 Hours), 33%. Besides, the “Derlin-1 mRNA knockdown (KD)” value with Derlin-1 mRNA [2] (T2, 4 nM siRNA, 6 Hours) is listed as 28%; in the data set with Derlin-1 mRNA [2] (T2, 8 nM siRNA, 6 Hours), 17%.

Regarding “TMTLPATTL (listed as Homo sapiens) [E33]”, the “surface expression of HLA-E in T2 cells” value with HLA-E [6] was “stronger upregulation”.

As to “VMAPRTLLL (VMAPRTLVL; listed as Homo sapiens) [A 2 leader peptide, reference compound]”, the “surface expression of HLA-E in T2 cells” value in the data set on HLA-E [6] is “enhanced surface expression”.

The record behind these values is patent US11464840B2, “Universal non-classical MHC I vaccines: HLA-E-restricted antigenic peptides as universal vaccines to treat allergy, inflammation, autoimmune and infectious diseases, and cancers” (priority 2019, dated 2022).
